Where “and” joins values, the source holds several entries; their conditions need not be identical. Equal values may be shown once. Read-outs that look alike come from different tables or passages of the source.

Twelve compounds from PMC10119930, “Dual Molecules Targeting 5-HT6 and GABA-A Receptors as a New Approach to Combat Depression Associated with Neuroinflammation” (ACS Chemical Neuroscience, 2023) can be followed below.

In data set [1] the test system is human α1β2γ2-GABA-A receptors. Nature of the data set: Electrophysiological studies, automated patch clamp (QPatch16X), HEK293 cells. It is filed as cell-based. The following applies: agonist mode, compound at 10 μM; current amplitude normalized to 10 μM GABA response; ±S.E.M. As to the method: Electrophysiological studies were acquired using the QPatch16X automatic patch clamp platform (Sophion Biosciences) as described before.[42],[43] […] Before the assay, cells were detached from the culture flask by treating them with TrypLE Express solution (Life Technologies) and subsequently suspended in serum-free media. The cells were loaded into a 1.5 mL microtube on the automated electrophysiology instrument, which subsequently performed a spin-down using its built-in centrifuge. Following this, the cells were washed with Ringer’s extracellular solution. The cells were moved to the pipetting wells of a 16-channel planar patch chip plate (QPlate 16X) designed for single-use. A combined suction/voltage protocol was then applied to establish gigaseals. […] During the entire whole-cell recording, the holding potential was maintained at −90 mV. […] The intracellular solution contained 140 mM CsF, 1 mM EGTA, 5 mM CsOH, 10 mM HEPES, 20 mMNaCl (pH 7.2, 320 mOsm). […] The acquired data were examined with QPatch assay software (v5.0, Sophion Biosciences)[44] and are represented as the mean of three separated measurements performed on distinct cells. The efficacy of the tested molecules was determined by calculating the baseline-corrected ratio of the maximum current amplitudes elicited by the tested compounds and the reference agonist (T1-ATG/AG1-ATG or T2-ATG/AG1-ATG). The raw current recordings were standardized and presented as a percentage of the current amplitude evoked by the reference agonist, using the QPatch assay software (v5.0, Sophion Biosciences).
(The patch-clamp technique gives a direct electrical read-out from membranes.)

For data set [2], the target named is T1, 5-HT6 receptor (Homo sapiens, UniProt P50406). Nature of the data set: Functional assay for 5-HT6 receptor, antagonist mode (aequorin, CHO-K1 cells). It is filed as cell-based. Further details: expressed in transfected cells; host or cells: CHO-K1 (co-expressing mitochondrially targeted aequorin and G protein α16). Particulars: ±S.E.M., read-out: 5-HT6 R KB. Here is the method: The studies were acquired according to previous protocols.[41] All the examined compounds (novel and the reference) were dissolved in DMSO (1 mM) and diluted accordingly using the assay buffer, directly in 96-well microplate. The recombinant CHO-K1 cells expressing human GPCR, mitochondrially targeted aequorin, and the promiscuous G protein α16 specific for 5-HT6 were used for the functional assay. The cells were thawed and suspended in the appropriate buffer containing DMEM/HAM’s F12 with 0.1% protease free BSA and were then centrifuged. After adding coelenterazine h to a final concentration of 5 μM, the cell pellet was resuspended in the buffer. The cell suspension was incubated at 16 °C for 16 h while being protected from light, gently shaken, and diluted with assay buffer to a concentration of 5000 cells/mL. Following that, 50 μL of the cell suspension was introduced to preloaded white opaque 96-well microplates containing the tested molecules. This was done using the automatic injectors integrated into the radiometric and luminescence plate counter MicroBeta2 LumiJET (PerkinElmer, USA). The light emission resulting from calcium mobilization was monitored for a duration of 60 s. For examination of the antagonistic properties of tested molecule, following 30 min of incubation, the reference agonist was administrated and the light emission was detected.
T1 sequence (P50406 whole entry): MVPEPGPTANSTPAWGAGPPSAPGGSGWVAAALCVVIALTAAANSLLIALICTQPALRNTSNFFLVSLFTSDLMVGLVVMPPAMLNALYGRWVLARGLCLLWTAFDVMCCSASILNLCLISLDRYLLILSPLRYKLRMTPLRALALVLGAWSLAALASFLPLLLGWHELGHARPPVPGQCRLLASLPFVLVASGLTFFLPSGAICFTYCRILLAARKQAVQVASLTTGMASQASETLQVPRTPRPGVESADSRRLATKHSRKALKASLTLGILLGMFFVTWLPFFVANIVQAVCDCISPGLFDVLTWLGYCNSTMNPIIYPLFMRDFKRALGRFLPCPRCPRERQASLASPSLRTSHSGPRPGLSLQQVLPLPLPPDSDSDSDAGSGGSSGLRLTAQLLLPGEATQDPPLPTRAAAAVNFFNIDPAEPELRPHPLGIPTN

Data set [3] has as its target T1, 5-HT6 receptor. The data set is described as follows: Radioligand binding assay for 5-HT6 receptor ([3H]-LSD displacement). On the set-up: expressed in transfected cells; host or cells: HEK-293 (cryopreserved membranes). The following applies: competitive replacement of [3H]-LSD, ±S.E.M. As to the method:
To determine the affinity for 5-HT6, the cryopreserved membranes from HEK-293 cells stably transfected with the human recombinant 5-HT6 receptor were used.[40] Preparation of the tested compounds included preparation of stock solutions in DMSO (1 mM) and subsequent serial dilutions (10^–10–10^–5 M) of tested compounds in the appropriate buffer (50 mM Tris buffer, pH 7.4, 10 mM MgCl2, 0.5 mM ethylenediaminetetraacetic acid). The serial dilutions were acquired directly on a 96-well microplate. The reaction mix included 50 μL of appropriate concentration of tested molecule, 50 μL of [^3H]LSD 2.5/2.0 nM, and 150 μL of diluted membranes. The microplate containing the reaction mix was protected with a sealing tape and incubated for 60 min at 37 °C. Quenching of the reaction mixtire included: rapid filtration through UniFilter 96 GF/B filter microplate and rapid washes using 200 μL 50 mM assay buffer and vacuum manifold and 96-well pipettor. The collected microplates were dried overnight at 37 °C. The UniFilter bottoms were sealed, and then 30 μL of Betaplate Scint liquid scintillator (PerkinElmer) was added to each well. […] The obtained data were fit to a one-site curve-fitting equation using Prism 5 software (GraphPad Software), and the Ki values were determined using the Cheng–Prusoff equation. Radioligand binding was performed in duplicates.

Data set [4] deals with muscimol site of the GABA-A receptor. The data set is described as follows: Radioligand binding assay for GABA-A receptor ([3H]muscimol displacement, rat brain homogenate). The following applies: competitive replacement of [3H]muscimol; ±S.E.M. Here is the method: The study was acquired according to the earlier protocols.[39] The rats’ brains were homogenized and prepared accurately according to the previous protocol.[39] On the day of the study, brain homogenates were thawed at room temperature and “diluted” in 20 volumes of ice-cold 50 mM Tris-HCl buffer (pH 7.4) and centrifuged (20.000g, 30 min, 0–4 °C). The assay was performed directly on 96-well microplates, which contained 50 mM Tris-HCl buffer (pH 7.4) in a total volume of 300 μL. Reaction mix included 240 μL of the brain tissue suspension, 30 μL of [^3H]-muscimol, and 30 μL solution of tested compounds (administrated at various concentrations: 10^–10–10^–5 M). […] The 96-well microplates containing the reaction mix were incubated for 10 min at 0 °C, followed by rapid filtration over glass fiber filters FilterMate B (PerkinElmer, USA) using the Harvester-96 MACH III FM (Tomtec, USA). The filter mats were dried using a microwave and then placed inside a plastic bag (PerkinElmer, USA). After that, they were soaked in 10 mL of Ultima Gold MV liquid scintillation cocktail (PerkinElmer, USA). […] Ki values were estimated according to the Cheng and Prusoff equation. The study was performed in duplicates. The statistical analysis was performed using (GraphPad Prism, version 4.0, San Diego, CA, USA).

The test system of data set [5] is female Wistar rats. The data set is described as follows: Forced swim test in rats. It is filed as in vivo, rat. Here is the method: (§1) Naïve female Wistar rats (weighing 180–200 g) were used in the study. The animals were housed in groups of three to four in standard Makrolon cages (37 cm × 21 cm × 15 cm) under strictly controlled laboratory conditions (ambient temperature 21–24 °C, relative humidity 45–65%) with a 12/12 h light–dark regime (light on at 6:00 a.m. and off at 6:00 p.m.). Animals had unrestricted access to tap water and food (typical pellets). Prior the experiment the animals were randomly appointed to the group. The behavioral studies were accomplished between 8:00 a.m. and 5:00 p.m. with the researcher blind to the study. The experiments were performed according to protocols approved by the Local Ethical Committee in Krakow (Approval Number 147/2018), Poland. Housing and experimental procedures were conducted under the European Union Directive of September 22, 2010 (2010/63/EU) and Polish legislation regarding animal studies. All efforts were made to minimize animal suffering and the number of animals used in the study.
(§2) Vortioxetine (Sigma, Germany) and the tested compounds (16 and 6) were dissolved in 10% cyclodextrin and administered ip 30 min before the test or during 14 consecutive days, with the last injection 60 min before the test. 10% cyclodextrin was administrated to control group.
(§3) A modified forced swim test was carried out according to Detke et al.[50],[51] First, the animals were individually placed inside Plexiglas cylinders, which were 40 cm high and 18 cm in diameter, filled with water at a temperature of 23–25 °C for 15 min. Afterward, the rats were transferred to a Plexiglas box and kept under a 60 W bulb for 30 min to dry. The day after, exactly 24 h later, the rats were once again placed in the cylinder, and their duration of immobility, swimming, and climbing was observed and recorded during a 5 min. The swimming behavior involved energetic movements such as horizontal swimming around the cylinder, while climbing activity referred to upward movements of the forepaws along the swim chamber’s side. Immobility was recorded when the rat only made necessary movements to keep its head above the water. For each test, a fresh water was provided. Open field test in rats: The test was conducted as previously reported by our research group.[52] The test was performed in a darkened room employing the Motor Monitor System (Campden Instruments, Ltd., U.K.). The system was equipped with two SmartFrame Open Field stations, each measuring 40 cm × 40 cm × 38 cm and consisting of 16 × 16 beams. These stations were placed inside sound-attenuating chambers and connected to a PC software using […]. The animals, belonging to either the vehicle-injected or drug-injected group, were individually positioned at the center of the station. The Motor Monitor System, which was automated, recorded the animal’s ambulation in both the X and Y axes, as well as the number of rearing and peeping episodes. Additionally, the total distance traveled by each animal during the 5 min test period was also recorded. Statistical analysis: Results are presented as the mean ± SEM values. They were estimated using one-way analysis of variance (ANOVA), followed by Newman–Keuls post hoc or unpaired two-tailed Student t test. Statistical significance was considered when p < 0.05 for differences between groups.

In data set [6] the test system is female Wistar rats. Nature of the data set: Open field test in rats (locomotor activity). The following applies: chronic treatment, dose 8, ip 14 days. Format: in vivo, rat. On the set-up: total distance traveled: unit not given here. As to the method: as §1, §2, §3
[7] abbreviates: acute, 8 mg/kg ip 30 min before test.

One may read the Kb as the affinity of an antagonist, worked out from how it opposes an agonist. The term Ki denotes a measure of affinity in units of concentration, obtained from inhibition or displacement. As for `Cl.Cl.NCCCC(=O)OCCN1CCN(c2cccc3c2oc(=O)n3Cc2ccccc2)CC1` [Compound 18, 1-(2-((4-Ammoniobutanoyl)oxy)ethyl)-4-(3-benzyl-2-oxo-2,3-dihydrobenzo[d]oxazol-7-yl)piperazin-1-ium Dichloride], in data set [1], the “[%] of 10 μM GABA activity” value was 14.0% and 14.0 ± 2.6%. Also, in data set [2], the Kb amounted to 0.245 ± 0.0007 µM. The Ki came to 0.13 ± 0.012 µM in data set [3] (read-out: 5-HT6R Ki) and 0.229 ± 0.028 µM in data set [4].
Consider `OCCN1CCN(c2cccc3c2OCCN3Cc2ccccc2)CC1` [Compound 10, 2-(4-(4-Benzyl-3,4-dihydro-2H-benzo[b][1,4]oxazin-8-yl)piperazin-1-yl)ethan-1-ol], for which the Ki in data set [3] (read-out: 5-HT6R Ki) was 0.024 ± 0.002 µM.
`O=c1[nH]c2c(N3CCNCC3)cccc2n1Cc1ccccc1` [Compound 2, 1-benzyl-4-(piperazin-1-yl)-1,3-dihydro-2H-benzo[d]imidazol-2-one] registered a Ki in data set [3] (5-HT6R Ki) of 0.0002 ± 2e-05 µM.
The compound `c1ccc(CN2CCOc3c(N4CCNCC4)cccc32)cc1` [Compound 5, 4-(4-Benzyl-3,4-dihydro-2H-benzo[b][1,4]oxazin-8-yl)piperazin-1-ium Chloride] came in with a Ki in data set [3] (5-HT6R Ki) of 0.06 ± 0.0075 µM.
Take `NCCCC(=O)OCCN1CCN(c2cccc3c2[nH]c(=O)n3Cc2ccccc2)CC1` [Compound 17, 1-(2-((4-Ammoniobutanoyl)oxy)ethyl)-4-(1-benzyl-2-oxo-2,3-dihydro-1H-benzo[d]imidazol-4-yl)piperazin-1-ium Dichloride]: in data set [2], the Kb was determined as 0.193 ± 0.0035 µM. Also, the figures for the Ki in data set [3] (read-out: 5-HT6R Ki) and in data set [4] were 0.057 ± 0.0059 µM and 0.592 ± 0.0525 µM, respectively.
`Cc1ccc(Sc2ccccc2N2CCNCC2)c(C)c1` [vortioxetine, Vortioxetine, reference compound]: in data set [5] (setting [7]), the climbing result is on record as “had no impact”, the “prolongation of swimming time” value worked out at 88.1% and the “reduction of immobility time” value came out at 24.7%. In addition, the “decrease of immobility time vs vehicle-treated group” value in data set [5] (subchronic, 8 mg/kg ip for 14 days, test 60 min after last injection) was 19.5%. In data set [6], this compound returned a X ambulation of 260.1, a Y ambulation of 265.9, a rearing of 50.6 and a total distance traveled of 2753.
On to `O=C1COc2c(N3CCN(CCO)CC3)cccc2N1Cc1ccccc1` [Compound 9, 4-Benzyl-8-(4-(2-hydroxyethyl)piperazin-1-yl)-2H-benzo[b][1,4]oxazin-3(4H)-one], for which the inhibition constant Ki in data set [3] (read-out: 5-HT6R Ki) was determined as 0.004 ± 0.0004 µM.
As to `O=c1oc2c(N3CCN(CCO)CC3)cccc2n1Cc1ccccc1` [Compound 8, 3-Benzyl-7-(4-(2-hydroxyethyl)piperazin-1-yl)benzo[d]oxazol-2(3H)-one], the Ki in data set [3] (read-out: 5-HT6R Ki) was found to be 0.15 ± 0.0076 µM.
Turning to `NCCCC(=O)OCCN1CCN(c2cccc3c2OCCN3Cc2ccccc2)CC1` [Compound 20, 1-(2-((4-Ammoniobutanoyl)oxy)ethyl)-4-(4-benzyl-3,4-dihydro-2H-benzo[b][1,4]oxazin-8-yl)piperazin-1-ium Dichloride], the Kb in data set [2] was 1.67 ± 0.001 µM. For the same compound, the inhibition constant (Ki) in data set [3] (read-out: 5-HT6R Ki) stood at 1.26 ± 0.082 µM; in data set [4], 0.184 ± 0.004 µM.
In turn, `O=C1COc2c(N3CCNCC3)cccc2N1Cc1ccccc1` [Compound 4, 4-benzyl-8-(piperazin-1-yl)-2H-benzo[b][1,4]oxazin-3(4H)-one] came in with a Ki in data set [3] (5-HT6R Ki) of 0.001 ± 0.0002 µM.
For the compound `O=c1oc2c(N3CCNCC3)cccc2n1Cc1ccccc1` [Compound 3, 3-Benzyl-7-(piperazin-1-yl)benzo[d]oxazol-2(3H)-one], the Ki in data set [3] (5-HT6R Ki) worked out at 0.004 ± 0.0002 µM.
For the compound `O=c1[nH]c2c(N3CCN(CCO)CC3)cccc2n1Cc1ccccc1` [Compound 7, 1-Benzyl-4-(4-(2-hydroxyethyl)piperazin-1-yl)-1,3-dihydro-2H-benzo[d]imidazol-2-one], the Ki in data set [3] (read-out: 5-HT6R Ki) came out at 0.04 ± 0.003 µM.
